In this assay the test system is HLA A2. The class given is binding, human. The conditions noted are these: for binding to HLA A2 (in words): in vitro binding assay.
[1] abbreviates: 100 μM peptide, RMA-S/A2 cells, peptide and only anti-mouse secondary antibody, FACS mean.
The mark [2] stands for this setting: 100 μM peptide, RMA-S/A2 cells, peptide, anti-A2 Mab BB7.2 and secondary antibody, FACS mean.
[3] abbreviates: 10 μM peptide, RMA-S/A2 cells, peptide and only anti-mouse secondary antibody, FACS mean.
The mark [4] stands for this setting: 10 μM peptide, RMA-S/A2 cells, peptide, anti-A2 Mab BB7.2 and secondary antibody, FACS mean.
The mark [5] stands for this setting: 1 μM peptide, RMA-S/A2 cells, peptide and only anti-mouse secondary antibody, FACS mean.
Setting [6] is: 1 μM peptide, RMA-S/A2 cells, peptide, anti-A2 Mab BB7.2 and secondary antibody, FACS mean.

“Also recorded” adds a separate entry of the source. Read-outs that look alike come from different tables or passages of the source.

In the case of “NLAGGILSV (listed as Chlamydia pneumoniae) [CH56]”, the “High - B” value was determined as 80 and the “Δ Mean” value stood at 240. Also, the “Mean 1” value under setting [1] was 143. Besides, the “Mean 2” value under setting [2] worked out at 383. Moreover, for the setting “RMA-S/A2 cells”, the “binding to HLA A2 (in words)” value was “bind to HLA A2; also recorded: positive in the binding assay”.
The corresponding values for “NLWSHYTDL (listed as Chlamydia pneumoniae) [CH53]” are 48, 209, 141, 350 and “bind to HLA A2”.
The corresponding values for YLMQKLQNV [CH29] are 111, 265, 153, 418 and “bind to HLA A2”.
With “WLFDLRFSV (listed as Chlamydia pneumoniae) [CH22]”, the “High - B” value is on record as 73 and the “Δ Mean” value amounted to 227. Moreover, the “Mean 1” value under setting [3] is reported as 163. For the same sequence, under setting [4], the “Mean 2” value was determined as 390. In addition, the “binding to HLA A2 (in words)” value (RMA-S/A2 cells) is given as “bind to HLA A2”.
As to “ALMLLNNYV (listed as Chlamydia pneumoniae) [CH20]”, the “High - B” value came out at 138 and the “Δ Mean” value was 384. Moreover, the “Mean 1” value under setting [1] is 194. The “Mean 2” value under setting [2] is on record as 578. Besides, the “binding to HLA A2 (in words)” value (RMA-S/A2 cells) is reported as “bind to HLA A2”.
As to LLLIFNNYL [CH36], the “High - B” value was −16 and the “Δ Mean” value is reported as 138. The “Mean 1” value under setting [5] is reported as 163. The “Mean 2” value under setting [6] was found to be 301. Further, for the setting “RMA-S/A2 cells”, the “binding to HLA A2 (in words)” value was “do not seem to bind”.
With “LLLTLGYAV (listed as Chlamydia pneumoniae) [CH19]”, the “High - B” value is 0 and the “Δ Mean” value was determined as 240. In addition, under setting [1], the “Mean 1” value is 196. The “Mean 2” value under setting [2] turned out to be 436. The “binding to HLA A2 (in words)” value (RMA-S/A2 cells) is “do not seem to bind”.
Take RLLEIIWGV [CH28]: the “High - B” value was 78 and the “Δ Mean” value came out at 232. Also, under setting [3], the “Mean 1” value is 158. The “Mean 2” value under setting [4] stood at 390. Moreover, the “binding to HLA A2 (in words)” value (RMA-S/A2 cells) is “bind to HLA A2”.
With NLSISVFLL [CH46], the “High - B” value is listed as 12 and the “Δ Mean” value amounted to 172. The “Mean 1” value under setting [1] amounted to 131. The “Mean 2” value under setting [2] is listed as 303.
For the sequence LIQETLLFV [CH24], the “High - B” value was found to be 75 and the “Δ Mean” value amounted to 229. Also, under setting [1], the “Mean 1” value turned out to be 165. The “Mean 2” value under setting [2] was 394. In addition, the “binding to HLA A2 (in words)” value (RMA-S/A2 cells) is listed as “bind to HLA A2”.
On to VMLFIGLGV [CH60], for which the “High - B” value is on record as −27 and the “Δ Mean” value stood at 133. For the same sequence, the “Mean 1” value under setting [3] is on record as 148. Besides, under setting [4], the “Mean 2” value is listed as 281.
In the case of “TLWGSFVDV (listed as Chlamydia pneumoniae) [CH21]”, the “High - B” value is 121 and the “Δ Mean” value is 275. Besides, the “Mean 1” value under setting [1] is 165. Besides, under setting [2], the “Mean 2” value is on record as 440. In addition, the “binding to HLA A2 (in words)” value (RMA-S/A2 cells) is “bind to HLA A2”.
The corresponding values for “SLCAQSSYV (listed as Chlamydia pneumoniae) [CH50]” are 91, 251, 130, 381 and “bind to HLA A2; also recorded: positive in the binding assay”.
On to WMMGVVLMI [CH45], for which the “High - B” value is recorded as 51 and the “Δ Mean” value is 211. Under setting [3], the “Mean 1” value is on record as 147. Besides, the “Mean 2” value under setting [4] is 358. Besides, under “RMA-S/A2 cells”, the “binding to HLA A2 (in words)” value was “bind to HLA A2”.
Regarding “NLSRQAFFA (listed as Chlamydia pneumoniae) [CH51]”, the “High - B” value worked out at 19 and the “Δ Mean” value is reported as 179. The “Mean 1” value under setting [1] turned out to be 132. The “Mean 2” value under setting [2] is 311.
Take QLLDEGKEL [CH1]: the “High - B” value amounted to 37 and the “Δ Mean” value is listed as 283. Besides, the “Mean 1” value under setting [1] was 206. For the same sequence, the “Mean 2” value under setting [2] came out at 489. Also, the “binding to HLA A2 (in words)” value (RMA-S/A2 cells) is recorded as “bind to HLA A2”.
The corresponding values for “YLTSYSPYV (listed as Chlamydia pneumoniae) [CH15]” are 76, 322, 235, 557 and “bind to HLA A2”.
In the case of QLLESLAPL [CH4], the “High - B” value was 58 and the “Δ Mean” value turned out to be 304. Further, under setting [1], the “Mean 1” value was 212. Further, the “Mean 2” value under setting [2] came to 516. In addition, the “binding to HLA A2 (in words)” value (RMA-S/A2 cells) is on record as “bind to HLA A2”.
Consider VLFLLIRSV [CH61], for which the “High - B” value is −37 and the “Δ Mean” value was found to be 123. For the same sequence, the “Mean 1” value under setting [5] came out at 135. Besides, the “Mean 2” value under setting [6] worked out at 258.
Turning to “KLLKDHFDL (listed as Chlamydia pneumoniae) [CH34]”, the “High - B” value was found to be 81 and the “Δ Mean” value is listed as 235. Further, the “Mean 1” value under setting [1] is 155. Also, the “Mean 2” value under setting [2] is 390. The “binding to HLA A2 (in words)” value (RMA-S/A2 cells) is listed as “bind to HLA A2”.
With FVSKFWFSL [CH57], the “High - B” value is −17. Besides, the “Mean 1” value under setting [5] came out at 127. Under setting [6], the “Mean 2” value is 270.
WLVFFNPFV [CH12]: the “High - B” value is reported as 0 and the “Δ Mean” value is 211. Moreover, the “Mean 1” value under setting [5] was determined as 204. Further, under setting [6], the “Mean 2” value was determined as 415. The “binding to HLA A2 (in words)” value (RMA-S/A2 cells) was “do not seem to bind”.
For the sequence FLFQLGMQI [CH62], the “High - B” value is 19 and the “Δ Mean” value is 179. Further, the “Mean 1” value under setting [1] was 126. Under setting [2], the “Mean 2” value worked out at 305.
Regarding KLSEQLEAL [CH41], the “High - B” value stood at 101 and the “Δ Mean” value came out at 261. The “Mean 1” value under setting [1] worked out at 162. Also, the “Mean 2” value under setting [2] is 423. Besides, the “binding to HLA A2 (in words)” value (RMA-S/A2 cells) was “bind to HLA A2; also recorded: positive in the binding assay”.
As for YVVGFIIFL [CH44], the “High - B” value worked out at 31 and the “Δ Mean” value was found to be 191. Besides, the “Mean 1” value under setting [3] turned out to be 150. For the same sequence, the “Mean 2” value under setting [4] came to 341.
For YLALDPDSV [CH48], the “Δ Mean” value came to 303. In addition, the “Mean 1” value under setting [1] was determined as 148. Also, the “Mean 2” value under setting [2] is listed as 451. Further, the “rank in the binding assay among five epitopes predicted in protein 4376601” value (CH44 to CH48) is on record as “strongest epitope using the binding assay”. For the setting “RMA-S/A2 cells”, the “binding to HLA A2 (in words)” value was “bind to HLA A2; also recorded: positive in the binding assay”.
For the sequence ILLNEVPYV [CH2], the “High - B” value turned out to be 133 and the “Δ Mean” value is 372. Under setting [3], the “Mean 1” value stood at 264. In addition, the “Mean 2” value under setting [4] worked out at 636. Besides, the “binding to HLA A2 (in words)” value (RMA-S/A2 cells) was “bind to HLA A2”.
As to VIQAFGDFV [CH47], the “High - B” value is 17 and the “Δ Mean” value was 177. Further, the “Mean 1” value under setting [3] was 125. Further, under setting [4], the “Mean 2” value is reported as 302.
Regarding “VQLAYVFDV (listed as Chlamydia pneumoniae) [CH16]”, the “High - B” value is 0 and the “Δ Mean” value was 232. Under setting [1], the “Mean 1” value is listed as 201. Also, the “Mean 2” value under setting [2] was 433. For the same sequence, for the setting “RMA-S/A2 cells”, the “binding to HLA A2 (in words)” value is recorded as “do not seem to bind”.
Take ILSFLPWLV [CH35]: the “High - B” value is given as 86 and the “Δ Mean” value is 240. Moreover, the “Mean 1” value under setting [3] amounted to 171. Further, the “Mean 2” value under setting [4] is 411. Further, the “binding to HLA A2 (in words)” value (RMA-S/A2 cells) was “bind to HLA A2”.
The corresponding values for IALLVIFFV [CH18] are 0, 230, 198, 428 and “do not seem to bind”.
On to LLMLAISLV [CH33], for which the “High - B” value came out at 0 and the “Δ Mean” value was found to be 154. Besides, the “Mean 1” value under setting [5] is listed as 164. Besides, the “Mean 2” value under setting [6] was found to be 318. Further, the “binding to HLA A2 (in words)” value (RMA-S/A2 cells) is “do not seem to bind”.
With VMLIFEKKV [CH14], the “High - B” value is recorded as 12 and the “Δ Mean” value is recorded as 258. For the same sequence, the “Mean 1” value under setting [1] is on record as 197. In addition, the “Mean 2” value under setting [2] is on record as 455. The “binding to HLA A2 (in words)” value (RMA-S/A2 cells) was “do not seem to bind”.
Take “ALWKENQAL (listed as Chlamydia pneumoniae) [CH54]”: the “High - B” value worked out at 91 and the “Δ Mean” value turned out to be 251. Moreover, the “Mean 1” value under setting [1] is given as 140. Moreover, where the note is “RMA-S/A2 cells”, the “binding to HLA A2 (in words)” value was “bind to HLA A2; also recorded: positive in the binding assay”.
As for “SLLEEHPVV (listed as Chlamydia pneumoniae) [CH52]”, the “High - B” value was found to be 89 and the “Δ Mean” value stood at 249. In addition, the “Mean 1” value under setting [1] is given as 147. Besides, the “Mean 2” value under setting [2] was 396. For the same sequence, the “binding to HLA A2 (in words)” value (RMA-S/A2 cells) is “bind to HLA A2; also recorded: positive in the binding assay”.
On to KLLAFPAFA [CH40], for which the “High - B” value is 96 and the “Δ Mean” value worked out at 341. In addition, under setting [1], the “Mean 1” value was 214. For the same sequence, under setting [2], the “Mean 2” value worked out at 555. Also, for the setting “RMA-S/A2 cells”, the “binding to HLA A2 (in words)” value was “bind to HLA A2”.
For NLAEQVTAL [CH43], the “Δ Mean” value was 286. For the same sequence, the “Mean 1” value under setting [1] is 153. For the same sequence, the “Mean 2” value under setting [2] was determined as 439. The “binding to HLA A2 (in words)” value (RMA-S/A2 cells) is given as “bind to HLA A2; also recorded: positive in the binding assay”.
On to YLIVFVLTI [CH59], for which the “High - B” value is −37, the “Mean 1” value is on record as 150, the “Mean 2” value amounted to 273 and the “Δ Mean” value is reported as 123.

These data come from patent US7754228B2, “Cytotoxic T-cell epitopes from Chlamydia” (Novartis Vaccines and Diagnostics, Srl, priority 2002, dated 2010).
